Test results reported in PubChem BioAssay (NCI).
Several values for one entry are separate records, joined by “and”; a condition that tells them apart may be missing. Equal values may be shown once.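 In this assay, cells in 96-well plates receive the compound at five concentrations for 48 hours. Endpoints are linearly interpolated between the surrounding concentrations. Abbreviation: GI50, concentration required for 50% inhibition of growth. TGI: total growth inhibition.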

Assays:
Experiment in all cases: DTP human tumour cell line panel, 48 h
A549 NSCLC = system: A549 NSCLC
CAKI-1 renal = system: CAKI-1 renal
NCI-H522 lung = system: NCI-H522 lung
RPMI-8226 leukemia = system: RPMI-8226 leukemia
SK-MEL-2 melanoma = system: SK-MEL-2 melanoma
SK-MEL-28 melanoma = system: SK-MEL-28 melanoma
SN12C renal = system: SN12C renal
SNB-19 CNS = system: SNB-19 CNS
SR leukemia = system: SR leukemia
UO-31 renal = system: UO-31 renal

Structure (SMILES)	TGI (A549 NSCLC)	TGI (CAKI-1 renal)	TGI (NCI-H522 lung)	TGI (RPMI-8226 leukemia)	TGI (SK-MEL-2 melanoma)	TGI (SK-MEL-28 melanoma)	TGI (SN12C renal)	TGI (SNB-19 CNS)	TGI (SR leukemia)	TGI (UO-31 renal)	GI50 (A549 NSCLC)	GI50 (CAKI-1 renal)	GI50 (NCI-H522 lung)	GI50 (RPMI-8226 leukemia)	GI50 (SN12C renal)	GI50 (SNB-19 CNS)	GI50 (SR leukemia)	GI50 (UO-31 renal)	GI50 (SK-MEL-2 melanoma)	GI50 (SK-MEL-28 melanoma)
COc1cc2c3cc1Oc1c(OC)c(OC)cc4c1[C@@H](Cc1ccc(O)c(c1)Oc1ccc(cc1)C[C@@H]3N(C)CC2)N(C)CC4	62 µM	19.7 µM	20.3 µM	41.5 µM	30.9 µM	29.5 µM	46.5 µM	45.3 µM	4.95 µM	30.1 µM	–	–	–	–	–	–	–	–	–	–
O=C(NCCCl)Nc1ccccc1	> 100 µM	> 100 µM	> 100 µM	> 100 µM	> 100 µM	> 100 µM	> 100 µM	> 100 µM	> 100 µM	> 100 µM	–	–	–	–	–	–	–	–	–	–
COC(=O)C(=O)C(C(C)=O)C(=O)NCc1ccccc1 (stereo not drawn)	> 100 µM	> 100 µM	> 100 µM	> 100 µM	> 100 µM	> 100 µM	> 100 µM	> 100 µM	> 100 µM	> 100 µM	–	–	–	–	–	–	–	–	–	–
CSc1ccc(NC(=O)Nc2cc(C)ccn2)cc1	> 100 µM	> 100 µM	> 100 µM	> 100 µM	> 100 µM	> 100 µM	> 100 µM	> 100 µM	> 100 µM	> 100 µM	–	–	–	–	–	–	–	–	–	–
COc1cc(C2c3cc4c(cc3[C@@H](Nc3ccc([N+](=O)[O-])cc3)C3COC(=O)[C@H]23)OCO4)cc(OC)c1O (stereo partly drawn)	3.72 µM	0.941 µM and 5.06 µM	5.42 µM	7.22 µM	10.7 µM	34.8 µM	7.96 µM	25.8 µM	0.802 µM and 2.18 µM	8.76 µM	157 nM and 166 nM	154 nM	733 nM	256 nM	486 nM	481 nM	45 nM	753 nM	–	–
COc1c(B(O)O)cccc1-c1nc2ccc3[nH]ncc3c2c2c1CCCC2	> 34.9 µM	0.252 µM	10.5 µM	7.01 µM	8.78 µM	10.2 µM	42.7 µM	28.1 µM	13.9 µM	14.3 µM	2550 nM	17.1 nM	1410 nM	936 nM	1770 nM	2680 nM	1130 nM	262 nM	3400 nM	3420 nM
CNCC(=O)NC(CO)C(=O)NC(CO)C(=O)NC1C(C(N)=O)OC(n2ccc(N)nc2=O)C(O)C1O (stereo not drawn)	> 50 µg/mL	> 50 µg/mL	8.98 µg/mL	> 50 µg/mL	23.7 µg/mL	> 50 µg/mL	> 50 µg/mL	45.1 µg/mL	> 50 µg/mL	> 50 µg/mL	17 µg/mL	15.7 µg/mL	1.85 µg/mL	> 50 µg/mL	9.89 µg/mL	6.5 µg/mL	16.8 µg/mL	12.4 µg/mL	4.58 µg/mL	21.7 µg/mL
CN(C)c1cc2c(Nc3ccc4c(cnn4Cc4ccccc4)c3)ncnc2cn1	> 25 µM	> 21.5 µM	> 25 µM	> 25 µM	20.9 µM	> 25 µM	> 25 µM	> 25 µM	> 25 µM	> 18.4 µM	7490 nM	299 nM	1820 nM	10900 nM	12100 nM	12700 nM	12800 nM	4060 nM	7500 nM	20000 nM
C=C1C(=O)O[C@@H]2CC(CO)=C([C@@H](C)CCCO)[C@@H](OC(=O)/C(C)=C\C)[C@H]12	> 71.9 µM	63.4 µM	15.3 µM	31 µM	70.5 µM	29.3 µM	43.5 µM	> 54.6 µM	8.22 µM	> 65 µM	–	–	–	–	–	–	–	–	–	–
OC(CN1CCCC2CCCCC21)c1cc2ccccc2c2ccccc12 (stereo not drawn)	19.1 µM	8.15 µM	3.06 µM	3.87 µM	3.31 µM	4.36 µM	13.4 µM	15.1 µM	3.43 µM	7.41 µM	4650 nM	2360 nM	1450 nM	1600 nM	3380 nM	3520 nM	1600 nM	1440 nM	1670 nM	2060 nM
Cc1c(Cl)cccc1NC(=O)c1sc2nc3c(cc2c1N)C(=O)CCC3	> 100 µM	> 100 µM	0.395 µM	> 55.4 µM	> 56 µM	> 100 µM	> 100 µM	> 100 µM	> 100 µM	> 91.5 µM	61.9 nM	46.1 nM	20.4 nM	234 nM	124 nM	69.8 nM	72.5 nM	68.2 nM	44 nM	174 nM
CCCCCCCCC(C)CCCCCCCCC(=O)OCC(COP(=O)([O-])OCC[N+](C)(C)C)OC(=O)CCCCCCCCC(C)CCCCCCCC (stereo not drawn)	> 100 µM	> 100 µM	> 100 µM	> 100 µM	> 100 µM	> 100 µM	> 100 µM	> 100 µM	> 100 µM	> 100 µM	–	–	–	–	–	–	–	–	–	–
